Results reported in the NIST ThermoML archive (doi:10.1021/acs.jced.7b00713).
Numbers after ± are expanded uncertainties.

Experiment: molar heat capacity at constant pressure
Details: Liquid, Flow calorimetry

F/C=C/C(F)(F)F [trans-1,3,3,3-tetrafluoropropene]
Details	molar heat capacity at constant pressure [J/K/mol]
313.46 K, 3000 kPa	160.8 ± 4.8
313.47 K, 3980 kPa	158.97 ± 4.8
313.47 K, 4490 kPa	157.95 ± 4.8
313.48 K, 3490 kPa	159.89 ± 4.8
313.48 K, 5010 kPa	157.04 ± 4.7
313.49 K, 1040 kPa	165.36 ± 5
313.49 K, 5490 kPa	156.58 ± 4.7
313.49 K, 6010 kPa	155.67 ± 4.7
313.49 K, 6990 kPa	153.61 ± 4.6
313.49 K, 7470 kPa	152.93 ± 4.6
313.5 K, 1510 kPa	164.22 ± 4.9
313.5 K, 7990 kPa	152.36 ± 4.6
313.51 K, 2010 kPa	163.08 ± 4.9
313.51 K, 6510 kPa	154.53 ± 4.7
313.51 K, 8500 kPa	151.79 ± 4.6
313.52 K, 2480 kPa	162.4 ± 4.9
313.52 K, 8990 kPa	150.99 ± 4.6
313.52 K, 9510 kPa	150.65 ± 4.6
313.53 K, 10000 kPa	149.96 ± 4.6
323.28 K, 3520 kPa	163.76 ± 4.9
323.28 K, 4030 kPa	162.4 ± 4.9
323.29 K, 4530 kPa	161.25 ± 4.8
323.29 K, 4990 kPa	160.46 ± 4.8
323.29 K, 7490 kPa	155.89 ± 4.7
323.29 K, 8010 kPa	154.75 ± 4.7
323.29 K, 8520 kPa	154.18 ± 4.7
323.29 K, 9040 kPa	153.04 ± 4.6
323.31 K, 5490 kPa	159.66 ± 4.8
323.31 K, 7030 kPa	156.92 ± 4.7
323.32 K, 3010 kPa	164.68 ± 4.9
323.32 K, 6010 kPa	158.63 ± 4.8
323.33 K, 1510 kPa	168.9 ± 5.1
323.33 K, 2010 kPa	167.41 ± 5
323.33 K, 2500 kPa	165.93 ± 5
323.33 K, 6480 kPa	157.83 ± 4.8
323.34 K, 9490 kPa	152.7 ± 4.6
323.36 K, 10010 kPa	151.79 ± 4.6
333.08 K, 1550 kPa	178.13 ± 5.4
333.08 K, 2060 kPa	175.62 ± 5.2
333.11 K, 2510 kPa	173.69 ± 5.2
333.11 K, 3500 kPa	170.26 ± 5.1
333.13 K, 3030 kPa	172.09 ± 5.1
333.13 K, 7490 kPa	160.8 ± 4.8
333.14 K, 8040 kPa	159.32 ± 4.8
333.15 K, 4000 kPa	169.01 ± 5.1
333.15 K, 6520 kPa	162.4 ± 4.9
333.15 K, 7020 kPa	161.37 ± 4.9
333.16 K, 6010 kPa	163.54 ± 4.9
333.16 K, 8500 kPa	158.75 ± 4.8
333.18 K, 4980 kPa	166.27 ± 5
333.18 K, 5500 kPa	164.56 ± 4.9
333.19 K, 4500 kPa	167.76 ± 5
333.19 K, 9020 kPa	158.06 ± 4.8
333.2 K, 10080 kPa	155.89 ± 4.7
333.21 K, 9510 kPa	157.38 ± 4.7
343.53 K, 2040 kPa	185.77 ± 5.6
343.57 K, 2550 kPa	183.04 ± 5.5
343.57 K, 3000 kPa	180.3 ± 5.5
343.59 K, 3540 kPa	178.36 ± 5.4
343.6 K, 4040 kPa	175.74 ± 5.2
343.61 K, 4540 kPa	173.23 ± 5.2
343.62 K, 5040 kPa	171.75 ± 5.1
343.62 K, 5510 kPa	169.69 ± 5.1
343.62 K, 10070 kPa	157.61 ± 4.8
343.63 K, 9080 kPa	160 ± 4.8
343.63 K, 9530 kPa	159.09 ± 4.8
343.64 K, 6050 kPa	168.44 ± 5
343.64 K, 6590 kPa	166.61 ± 5
343.64 K, 7070 kPa	165.25 ± 5
343.64 K, 7510 kPa	163.88 ± 4.9
343.64 K, 8090 kPa	162.17 ± 4.9
343.65 K, 8480 kPa	160.91 ± 4.8
353.55 K, 2550 kPa	196.49 ± 5.9
353.55 K, 3510 kPa	188.4 ± 5.7
353.58 K, 3040 kPa	192.05 ± 5.8
353.61 K, 5010 kPa	178.36 ± 5.4
353.61 K, 5510 kPa	176.54 ± 5.4
353.62 K, 6040 kPa	175.17 ± 5.2
353.64 K, 4520 kPa	181.44 ± 5.5
353.64 K, 6530 kPa	173.69 ± 5.2
353.64 K, 7050 kPa	172.54 ± 5.1
353.65 K, 7500 kPa	171.63 ± 5.1
353.65 K, 7970 kPa	170.72 ± 5.1
353.66 K, 4050 kPa	184.52 ± 5.6
353.67 K, 8480 kPa	170.04 ± 5.1
353.68 K, 9030 kPa	168.67 ± 5
353.68 K, 9510 kPa	168.21 ± 5
353.68 K, 10090 kPa	166.96 ± 5
363.56 K, 3500 kPa	207.67 ± 6.3
363.56 K, 4000 kPa	200.03 ± 6
363.57 K, 3000 kPa	219.53 ± 6.6
363.61 K, 4510 kPa	194.78 ± 5.8
363.61 K, 5520 kPa	186.46 ± 5.6
363.62 K, 4990 kPa	190.34 ± 5.7
363.63 K, 6020 kPa	182.81 ± 5.5
363.64 K, 6520 kPa	180.19 ± 5.4
363.64 K, 6990 kPa	177.33 ± 5.4
363.64 K, 7530 kPa	175.05 ± 5.2
363.64 K, 8010 kPa	173.12 ± 5.2
363.65 K, 8530 kPa	171.4 ± 5.1
363.65 K, 9050 kPa	170.15 ± 5.1
363.66 K, 9450 kPa	169.01 ± 5.1
363.66 K, 9990 kPa	167.76 ± 5
373.35 K, 3540 kPa	259.44 ± 8
373.42 K, 4030 kPa	231.73 ± 7.1
373.42 K, 4510 kPa	216.91 ± 6.6
373.43 K, 5010 kPa	206.42 ± 6.3
373.44 K, 5540 kPa	199.23 ± 6
373.47 K, 6020 kPa	194.1 ± 5.8
373.48 K, 7010 kPa	185.66 ± 5.6
373.49 K, 6530 kPa	189.54 ± 5.7
373.49 K, 7500 kPa	183.04 ± 5.5
373.5 K, 8030 kPa	179.62 ± 5.4
373.51 K, 8510 kPa	177.45 ± 5.4
373.56 K, 9050 kPa	175.4 ± 5.2
373.57 K, 9430 kPa	174.48 ± 5.2
373.59 K, 9990 kPa	172.66 ± 5.1
391.65 K, 4520 kPa	525.5 ± 21
392.2 K, 5020 kPa	310.99 ± 13
392.38 K, 5470 kPa	257.73 ± 8.2
392.46 K, 6010 kPa	226.37 ± 7
392.52 K, 6540 kPa	210.06 ± 6.4
392.57 K, 7060 kPa	200.6 ± 6
392.6 K, 7560 kPa	194.55 ± 5.8
392.63 K, 8030 kPa	191.02 ± 5.7
392.67 K, 8510 kPa	189.88 ± 5.7
392.72 K, 9070 kPa	188.05 ± 5.7
392.75 K, 10000 kPa	187.03 ± 5.6
392.77 K, 9520 kPa	188.51 ± 5.7
392.77 K, 10010 kPa	187.48 ± 5.6
